Here are results for four compounds from article doi:10.1101/2024.10.11.617883, “A Streamlined High-Throughput LC-MS Assay for Quantifying Peptide Degradation in Cell Culture” (bioRxiv, 2024).

The nature of one series: in vitro. To be noted: human, cells or culture medium.
Series [1] is described as follows: Retention on the reverse-phase LC-MS column. In kind it is physicochemical. How it is done: The column temperature was a constant 29 °C. The mass spectrometer was operated in positive ion mode.
Since salts from cell culture media adversely impact ionization and foul the MS, we send the mobile phase from the first 1.5 minutes of LCMS to waste prior to ionization to prevent salt accumulation in the mass spectrometer. Accordingly, peptides and internal standards which elute before the gradient begins are not suitable for quantification since they will not be analyze by the mass spectrometer. N-terminal acetylation, the addition of a phenylalanine, or β-homophenylalanine improves retention time by increasing they hydrophobicity of the polypeptide, which increases the affinity to the column (Figure 2A). After 48 hours of degradation, three internal standards candidates had both good retention times and less than 10% degradation (Figure 2B): 1) Ac-βA6-Amide, 2) NH2-βFβA6-Amide, and 3) Ac-FβA6-Amide. The ability of molecules to be identified in mass spectrometry is dependent on their propensity to become ionized, and the Ac-βA6-Amide standard was excluded due to weak signal intensity of the LC-MS (not shown), likely due to the lack of charged groups. […]

The conditions of series [2]: human, cells or culture medium.
Method: (§1) Human mesenchymal stem cells (hMSCs) (Rooster Bio, LOT 310368) at passage 3 were seeded into 24 well plates at a seeding density of 75,000 cells per well in 1mL of RoosterBasal-MSC-CC (RoosterBio, SU-022) containing RoosterBooster-MSC (RoosterBio SU-003). After 24 hour the media was changed, and peptide library AcβA-RGEFV-X-NH2 was added to the cell media for a final concentration of 37 μM per peptide. Each Library was tested in three times, each in triplicate with three technical repeats for a total of 27 wells. 40 μl samples were collected from the media at hours 0, 1, 4, 8, 24, and 48 in duplicate.
(§2) In-between timepoints, one set of samples was loaded directly within the LC-MS and measured as soon as possible, then stored at 4°C. The second set of samples was immediately frozen at −80°C. After 48 hours, samples were kept frozen and thawed just prior to LC-MS, and 4μL of acetic acid was added to each well. After three weeks the samples were tested again.
(§3) From each sample, 10 μL of crude solution was introduced by the LC-MS through an Thermo Scientific Vanquish LC System (Thermo Fisher Scientific) which outputted to a Thermo Scientific LTQ XL Linear Ion Trap Mass Spectrometer (Thermo Fisher Scientific). The sampled mixture was trapped on a column (ProntoSIL C18 AQ, 120 Å, 3 μm, 2.0 × 50 mm HPLC Column, PN 0502F184PS030, MAC-MOD Analytical Inc.). The samples were loaded onto the column with a solvent containing acetonitrile/water, 5:95 (v/v) containing 1% acetic acid at a flow rate of 300 μL/min and held for one minute. The sample was then eluted from the column with a linear gradient of 5–40% Solvent B (1% acetic acid in acetonitrile) at the same flow rate for five minutes. This was followed by a 1 min ramp up to 100% solvent B, where it was re-equilibrated with solvent A (1% acetic acid) to 5% solvent B over the course of 1 min and held there for 2 min. The column temperature was a constant 29 °C. The mass spectrometer was operated in positive ion mode. Using a heated ESI, the source voltage was set to 4.1 kV, and the capillary temperature was 350 °C.
(§4) Data analysis was performed on Xcalibur Software (Thermo Scientific). Peptides were identified automatically using the Thermo Xcalibur Processing Setup window where the mass (m/z) ±0.5 AMU and expected retention times for each quantified peptide were inputted. This was later used to isolate individual peptide species from the total ion count (TIC) trace using the Thermo Xcalibur Quan Setup window, where the area under the curve was calculated and visually inspected for accuracy. […] The integrated peak area of the peptide of interest was divided by the NH2-βF(βA)6-Amide internal standard to create an area ratio. Relative amounts of a peptide of peptide were then calculated by normalized all values to their corresponding time zero area ratio. Calculated data was visualized using RStudio.
Series [3] concerns human mesenchymal stem cells (hMSCs).
Method: as §1, §2, §3, §4

Read-outs that look alike come from different tables or passages of the source.

Method for in vitro: as §1, §2, §3, §4

As for `CC(=O)N[C@@H](Cc1ccccc1)C(=O)NCCC(=O)NCCC(=O)NCCC(=O)NCCC(=O)NCCC(=O)NCCC(N)=O` [Ac-FβA6-Amide], the metabolised at 48 h in “in vitro” was below 10%.

The compound `CC(=O)NCCC(=O)NCCC(=O)NCCC(=O)NCCC(=O)NCCC(=O)NCCC(N)=O` [Ac-βA6-Amide] came in with a metabolised at 48 h in the series “in vitro” below 10%.

As for `NC(=O)CCNC(=O)CCNC(=O)CCNC(=O)CCNC(=O)CCNC(=O)CCNC(=O)C[C@@H](N)Cc1ccccc1` [NH2-βFβA6-Amide], the peptide elution time in series [1] (ProntoSIL C18 AQ 2.0 x 50 mm, 5% B held 1 min then 5-40% acetonitrile (1% acetic acid) over 5 min, 300 μL/min, 29 °C, retention tied to hydrophobicity and column affinity) is 2.68 min. Further, in series [2], the metabolised at 48 h was below 10% and the share remaining (in general, what is left of the initial amount, in per cent) at 48 h is above 92%. The “time stable in cell culture” value in series [3] turned out to be 48 h.

With `NCCC(=O)NCCC(=O)NCCC(=O)NCCC(=O)NCCC(=O)NCCC(N)=O` [NH2-(βA)6-Amide], the “affinity to the LC-MS column (retention)” value in series [1] (ProntoSIL C18 AQ, gradient begins after 1 min at 5% B, first 1.5 minutes sent to waste) is recorded as “eluting before the chromatography gradient begins”.
